Test results reported in ChEMBL document CHEMBL1123020.

How the values were obtained:
[1] = biological target: Beta-1 adrenergic receptor (Homo sapiens) (UniProt P08588); settings: Canis lupus familiaris
Description: Apparent pA2 value for myocardial contractile force (beta-1) evaluated against beta-1 adrenergic receptor in anesthetized dogs

[2] = biological target: Beta-2 adrenergic receptor (Canis lupus familiaris) (UniProt P54833); assay: Apparent pA2 value for isoproterenol-induced vasodilation (beta2) evaluated against beta-2 adrenergic receptor in anesthetized dogs
[3] = biological target: Adrenergic receptor beta; ADRB1 & ADRB2 (Homo sapiens) (UniProt P08588+P07550); settings: Canis lupus familiaris
Adrenergic receptor beta; ADRB1 & ADRB2 (Homo sapiens), sequence (P07550 whole entry, looked up): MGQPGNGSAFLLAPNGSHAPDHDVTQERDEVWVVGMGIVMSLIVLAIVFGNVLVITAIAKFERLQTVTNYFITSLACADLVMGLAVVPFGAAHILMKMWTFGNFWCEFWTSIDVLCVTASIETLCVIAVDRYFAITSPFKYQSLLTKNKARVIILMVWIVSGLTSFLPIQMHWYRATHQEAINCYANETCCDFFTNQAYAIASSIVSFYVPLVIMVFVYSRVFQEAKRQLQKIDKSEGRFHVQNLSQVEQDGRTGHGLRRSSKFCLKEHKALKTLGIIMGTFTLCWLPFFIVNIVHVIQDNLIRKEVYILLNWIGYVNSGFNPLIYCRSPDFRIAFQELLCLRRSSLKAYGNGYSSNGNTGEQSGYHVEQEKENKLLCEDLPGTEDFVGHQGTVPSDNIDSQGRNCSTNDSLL
Adrenergic receptor beta; ADRB1 & ADRB2 (Homo sapiens), sequence (P08588 whole entry, looked up): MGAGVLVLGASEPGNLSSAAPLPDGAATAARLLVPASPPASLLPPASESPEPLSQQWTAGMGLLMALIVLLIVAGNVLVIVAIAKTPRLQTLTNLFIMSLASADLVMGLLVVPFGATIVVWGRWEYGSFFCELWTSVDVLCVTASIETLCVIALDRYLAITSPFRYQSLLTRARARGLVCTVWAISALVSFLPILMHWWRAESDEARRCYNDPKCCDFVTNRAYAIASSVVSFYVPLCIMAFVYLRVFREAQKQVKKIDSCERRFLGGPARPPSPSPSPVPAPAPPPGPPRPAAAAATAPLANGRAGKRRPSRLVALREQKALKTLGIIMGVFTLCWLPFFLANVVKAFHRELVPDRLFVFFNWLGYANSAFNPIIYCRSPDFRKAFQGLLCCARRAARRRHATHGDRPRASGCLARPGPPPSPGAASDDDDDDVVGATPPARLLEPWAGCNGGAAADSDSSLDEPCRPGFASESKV
Description: Apparent pA2 value for blockade of isoproterenol-induced increase in heart rate evaluated against beta adrenergic receptor in anesthetized dogs

Beta-2 adrenergic receptor (Canis lupus familiaris), sequence (P54833 whole entry, looked up): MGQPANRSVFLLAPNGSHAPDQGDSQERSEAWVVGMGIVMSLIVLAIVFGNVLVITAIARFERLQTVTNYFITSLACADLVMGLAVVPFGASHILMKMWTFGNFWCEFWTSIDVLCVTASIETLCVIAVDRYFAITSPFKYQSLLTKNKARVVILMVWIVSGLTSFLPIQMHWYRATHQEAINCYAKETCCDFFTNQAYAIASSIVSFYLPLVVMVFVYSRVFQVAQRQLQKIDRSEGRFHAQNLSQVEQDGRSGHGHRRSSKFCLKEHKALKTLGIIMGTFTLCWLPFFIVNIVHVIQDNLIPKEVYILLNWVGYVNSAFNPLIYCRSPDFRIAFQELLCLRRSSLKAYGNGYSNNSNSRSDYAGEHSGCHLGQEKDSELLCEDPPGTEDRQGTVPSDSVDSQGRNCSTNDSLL
Beta-1 adrenergic receptor (Homo sapiens), sequence (P08588 whole entry, looked up): as the sequence (P08588 whole entry, looked up) above

## CC(C)NCC(O)COc1ccc(O)c2ccccc12 (stereo not drawn)
[1]
  Contractile force: 4.75
[2]
  Vasodilation: 4.82
[3]
  Heart rate: 5.12
